Source: ChEMBL document CHEMBL1201862, “PubChem BioAssay data set” (2004)
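Results reflect a 48-hour exposure of cells in 96-well plates to compound at five concentrations. GI50 marks 50% less growth.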 Calls of active or inactive are those of the source. Cut-off read from the data, not from the text of the source: active = GI50 up to about 1.1 µM and inactive = higher.

Assays:
Experiment in all cases: NCI-60 cell line screen, 48 h
PC-3 = test system: PC-3
T47D = test system: T47D
SN12C = test system: SN12C
MDA-MB-435 = test system: MDA-MB-435
NCI-H460 = test system: NCI-H460
OVCAR-5 = test system: OVCAR-5
RPMI-8226 = test system: RPMI-8226
NCI-H226 = test system: NCI-H226
OVCAR-3 = test system: OVCAR-3
A498 = test system: A498
MDA-MB-231 = test system: MDA-MB-231
EKVX = test system: EKVX
K562 = test system: K562
786-0 = test system: 786-0
NCI-H522 = test system: NCI-H522
IGROV-1 = test system: IGROV-1
KM12 = test system: KM12
SF-268 = test system: SF-268
CCRF-CEM = test system: CCRF-CEM
M19-MEL = test system: M19-MEL

SMILES | GI50 (PC-3) | GI50 (T47D) | GI50 (SN12C) | GI50 (MDA-MB-435) | GI50 (NCI-H460) | GI50 (OVCAR-5) | GI50 (RPMI-8226) | GI50 (NCI-H226) | GI50 (OVCAR-3) | GI50 (A498) | GI50 (MDA-MB-231) | GI50 (EKVX) | GI50 (K562) | GI50 (786-0) | GI50 (NCI-H522) | GI50 (IGROV-1) | GI50 (KM12) | GI50 (SF-268) | GI50 (CCRF-CEM) | GI50 (M19-MEL)
Cc1cccc(C2NC(=O)c3ccccc3N2)c1 (stereo not drawn) | 3.95 µM (inactive) | > 100 µM (inactive) | 5.87 µM (inactive) | 0.399 µM (active) | 3.3 µM (inactive) | 17.3 µM (inactive) | 3.2 µM (inactive) | 5.35 µM (inactive) | 3.22 µM (inactive) | 6.4 µM (inactive) | 25.8 µM (inactive) | 7.76 µM (inactive) | 0.906 µM (active) | 4.55 µM (inactive) | 3.69 µM (inactive) | 4.62 µM (inactive) | 3.21 µM (inactive) | 11.3 µM (inactive) | 3.23 µM (inactive) | 
C=C(NC(=O)C(=C)NC(=O)c1csc(C2=NC3c4csc(n4)C4NC(=O)c5csc(n5)C(C(C)(O)C(C)O)NC(=O)C5CSC(=N5)/C(=C/C)NC(=O)C(C(C)O)NC(=O)c5csc(n5)C3(CC2)NC(=O)C(C)NC(=O)C(=C)NC(=O)C(=C)NC(=O)C(C(C)C)NC2C=Cc3c(C(C)O)cc(nc3C2O)C(=O)OC4C)n1)C(N)=O (stereo not drawn) | 6.89 µM (inactive) | 2.4 µM (inactive) | 3.75 µM (inactive) | 0.743 µM (active) | 4.7 µM (inactive) | 4.09 µM (inactive) | 1.29 µM (inactive) | 1.19 µM (inactive) | 10.3 µM (inactive) | 2.29 µM (inactive) | 0.815 µM (active) | 3.92 µM (inactive) | 0.774 µM (active) | 1.29 µM (inactive) | 0.158 µM (active) | 7.28 µM (inactive) | 2.66 µM (inactive) | 7.19 µM (inactive) | 0.25 µM (active) | 
CN(C)CCC(/C=C/c1ccccc1)=N\Nc1c(F)c(F)c(F)c(F)c1F |  |  | 64.6 µM (inactive) |  | 27.7 µM (inactive) | > 100 µM (inactive) | 24.8 µM (inactive) |  | > 100 µM (inactive) | 62.2 µM (inactive) |  | > 100 µM (inactive) | 39.4 µM (inactive) | > 100 µM (inactive) | 64.1 µM (inactive) | > 100 µM (inactive) | > 100 µM (inactive) | > 100 µM (inactive) | 55.6 µM (inactive) | 39.4 µM (inactive)
O=C1C(Cl)C(c2cc3cc(Br)ccc3nc2Cl)N1c1c(Cl)cccc1Cl (stereo not drawn) | 20 µM (inactive) | 11.6 µM (inactive) | 16.6 µM (inactive) | 8.67 µM (inactive) | > 25 µM (inactive) | > 25 µM (inactive) | 6.78 µM (inactive) | 15.8 µM (inactive) | 18.2 µM (inactive) | > 25 µM (inactive) | 19.3 µM (inactive) | 6.32 µM (inactive) | 7.01 µM (inactive) | 12.4 µM (inactive) | 5.37 µM (inactive) | 6.9 µM (inactive) | > 25 µM (inactive) | 11.7 µM (inactive) | 7.53 µM (inactive) | 
Cn1c(=O)sc2cc(C(=S)N3CCOCC3)ccc21 | > 100 µM (inactive) | > 100 µM (inactive) | > 100 µM (inactive) | > 100 µM (inactive) | > 100 µM (inactive) | > 100 µM (inactive) | > 79.8 µM (inactive) | > 46.9 µM (inactive) | > 100 µM (inactive) | > 100 µM (inactive) | > 100 µM (inactive) | > 28.8 µM (inactive) | 41.2 µM (inactive) | > 100 µM (inactive) | 87.3 µM (inactive) | > 51.5 µM (inactive) | > 100 µM (inactive) | > 100 µM (inactive) | 28.6 µM (inactive) | 
c1ccc2c(c1)CCCN1CCc3ccccc3C21 (stereo not drawn) | 41 µM (inactive) | > 100 µM (inactive) | 57 µM (inactive) | 19.8 µM (inactive) | 33.9 µM (inactive) | 42.2 µM (inactive) | 36.2 µM (inactive) | 33.3 µM (inactive) | > 100 µM (inactive) | > 100 µM (inactive) | 48.1 µM (inactive) | 39.9 µM (inactive) | 30 µM (inactive) | 80.9 µM (inactive) | > 100 µM (inactive) | 40.3 µM (inactive) | 45.6 µM (inactive) | 92 µM (inactive) | 49.1 µM (inactive) | 
CC1=C(C(=O)NNC(=O)C(N)=O)CC(C(=O)NNC(=O)C(N)=O)=C(C)N1 | > 100 µM (inactive) | > 100 µM (inactive) | > 100 µM (inactive) | > 100 µM (inactive) | > 100 µM (inactive) | > 100 µM (inactive) | > 100 µM (inactive) | > 100 µM (inactive) | > 100 µM (inactive) | > 100 µM (inactive) | > 100 µM (inactive) | > 100 µM (inactive) | > 100 µM (inactive) | > 100 µM (inactive) | > 100 µM (inactive) | > 100 µM (inactive) | > 100 µM (inactive) | > 100 µM (inactive) | > 100 µM (inactive) | 
Nc1cc(Cl)cc2cc(Cl)cnc12 | 72.3 µM (inactive) | 26.4 µM (inactive) | > 100 µM (inactive) | > 100 µM (inactive) | > 100 µM (inactive) | > 100 µM (inactive) | > 100 µM (inactive) | > 100 µM (inactive) | > 100 µM (inactive) | 49 µM (inactive) | > 100 µM (inactive) | 39.9 µM (inactive) | > 100 µM (inactive) | > 100 µM (inactive) | 57 µM (inactive) | 93.1 µM (inactive) | > 100 µM (inactive) | 82.6 µM (inactive) | 14 µM (inactive) | 
COc1ccc(/C=C/C(=N\NC(=O)c2ccccc2)c2sc(Nc3ccc([N+](=O)[O-])cc3)nc2C)cc1OC |  |  | 13.9 µM (inactive) |  | 16.5 µM (inactive) | 27.7 µM (inactive) |  | 18.2 µM (inactive) | 23.3 µM (inactive) |  |  | 18.6 µM (inactive) | 3.18 µM (inactive) | 10.5 µM (inactive) | 4.24 µM (inactive) | > 10 µM (inactive) | 7.73 µM (inactive) | 13.2 µM (inactive) | 2.34 µM (inactive) | 12.6 µM (inactive)
CC1(c2ccc(Cl)cc2)C2C(=O)NC(=O)C1C(=O)NC2=O (stereo not drawn) |  |  | > 100 µM (inactive) |  | > 100 µM (inactive) | > 100 µM (inactive) | > 100 µM (inactive) |  | > 100 µM (inactive) | > 100 µM (inactive) |  | > 100 µM (inactive) | > 100 µM (inactive) | > 100 µM (inactive) | > 100 µM (inactive) | > 100 µM (inactive) | > 100 µM (inactive) | > 100 µM (inactive) | > 100 µM (inactive) | > 100 µM (inactive)
N#CC1(C#N)C2=C(CCCC2)NC(c2ccc(Br)cc2)C1(C#N)C#N (stereo not drawn) | 13.7 µM (inactive) | 2.26 µM (inactive) | 2.33 µM (inactive) | 3.68 µM (inactive) | 24.1 µM (inactive) | 9.95 µM (inactive) | 1.91 µM (inactive) | 20.2 µM (inactive) | 6.56 µM (inactive) | 19 µM (inactive) | 11.5 µM (inactive) | 12.4 µM (inactive) | 0.762 µM (active) | 1.79 µM (inactive) | 0.927 µM (active) | 2.83 µM (inactive) | 15.1 µM (inactive) | 7.78 µM (inactive) | 0.226 µM (active) | 
ClC1=NN=C(c2c[nH]c3ccccc23)CC1NCc1ccccc1 (stereo not drawn) | > 100 µM (inactive) | > 100 µM (inactive) | > 100 µM (inactive) | > 100 µM (inactive) | > 100 µM (inactive) | > 100 µM (inactive) | > 100 µM (inactive) | > 100 µM (inactive) | > 100 µM (inactive) | > 100 µM (inactive) | > 100 µM (inactive) | > 100 µM (inactive) | > 100 µM (inactive) | > 100 µM (inactive) | > 100 µM (inactive) | 97.7 µM (inactive) | > 100 µM (inactive) | > 100 µM (inactive) | > 100 µM (inactive) | 
COc1cc(C(O)CCBr)c(OC)cc1C (stereo not drawn) | 6.65 µM (inactive) | > 72.1 µM (inactive) | 16.4 µM (inactive) | 4.3 µM (inactive) | 30.5 µM (inactive) | > 47.1 µM (inactive) | 6.73 µM (inactive) | 32.9 µM (inactive) | 13.4 µM (inactive) | > 64.6 µM (inactive) | 21.2 µM (inactive) | > 100 µM (inactive) | 3.61 µM (inactive) | 8.32 µM (inactive) | 27.5 µM (inactive) | 24.4 µM (inactive) | 29.9 µM (inactive) | 31.4 µM (inactive) | 3.07 µM (inactive) | 
C[P+](C)(C)c1ccccc1 |  |  | > 100 µM (inactive) |  | > 100 µM (inactive) | > 100 µM (inactive) | > 100 µM (inactive) | > 100 µM (inactive) | > 100 µM (inactive) |  |  | > 100 µM (inactive) | > 100 µM (inactive) | > 100 µM (inactive) |  | > 100 µM (inactive) | > 100 µM (inactive) | > 100 µM (inactive) | > 100 µM (inactive) | > 100 µM (inactive)
Cc1cc(O)nc(NNC(C#N)c2cccc(O)c2)n1 (stereo not drawn) |  |  | > 100 µM (inactive) |  | > 100 µM (inactive) | > 100 µM (inactive) | > 100 µM (inactive) | > 100 µM (inactive) | > 100 µM (inactive) |  |  |  | > 100 µM (inactive) | > 100 µM (inactive) | > 100 µM (inactive) | > 100 µM (inactive) | > 100 µM (inactive) | > 100 µM (inactive) | > 100 µM (inactive) | > 100 µM (inactive)
O=C(c1ccc(O)cc1O)C1C(c2ccc(O)cc2)OC(c2ccc(O)cc2)C1C(=O)c1ccc(O)cc1O (stereo not drawn) |  |  | > 10 µM (inactive) |  | 42.8 µM (inactive) | 12.6 µM (inactive) |  | 17.2 µM (inactive) | 18.7 µM (inactive) |  |  | 21.2 µM (inactive) |  | 5.38 µM (inactive) | 16.5 µM (inactive) |  | 21.9 µM (inactive) | 17.1 µM (inactive) |  | 19.6 µM (inactive)
